Laboratory results taken from US12509474B2, “Inhibitors of complement factors and uses thereof” (Annexon, Inc., priority 2020, dated 2025).
Structures can show the parent of a compound that is named as a salt.

The molecules below were run against T1, human C1s protein (Homo sapiens, UniProt P09871) (assay: C1s enzymatic assay (hydrolysis of YLGR-Rh110-dPro)). Settings: substrate YLGR-Rh110-dPro 20 μM, 15 min pre-incubation, 60 min RT, fluorescence, read-out: hC1s pIC50 (converted).
T1 construct: A104
T1 sequence (P09871 16-688): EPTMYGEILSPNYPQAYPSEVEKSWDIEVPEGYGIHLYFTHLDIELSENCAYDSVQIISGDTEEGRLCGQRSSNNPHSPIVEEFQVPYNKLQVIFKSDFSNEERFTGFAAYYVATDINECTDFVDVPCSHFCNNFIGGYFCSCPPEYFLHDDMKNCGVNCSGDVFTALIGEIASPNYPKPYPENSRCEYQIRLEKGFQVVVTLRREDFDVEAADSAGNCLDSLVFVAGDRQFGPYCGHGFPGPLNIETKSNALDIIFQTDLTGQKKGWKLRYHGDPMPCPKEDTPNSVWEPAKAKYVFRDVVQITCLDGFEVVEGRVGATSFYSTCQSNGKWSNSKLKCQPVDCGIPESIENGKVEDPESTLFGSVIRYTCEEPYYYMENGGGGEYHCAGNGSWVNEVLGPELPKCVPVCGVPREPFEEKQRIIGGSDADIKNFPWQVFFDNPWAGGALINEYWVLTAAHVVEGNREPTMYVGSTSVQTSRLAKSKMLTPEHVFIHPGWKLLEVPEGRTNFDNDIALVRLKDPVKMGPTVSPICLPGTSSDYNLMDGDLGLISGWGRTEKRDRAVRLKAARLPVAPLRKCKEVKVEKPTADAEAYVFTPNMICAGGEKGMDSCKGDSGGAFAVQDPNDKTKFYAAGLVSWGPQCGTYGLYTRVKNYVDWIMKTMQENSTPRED
Assay type: biochemical
Method: Compound Testing in the C1s Enzymatic Assay
The enzyme cleaves the substrate with the release of Rh110 which is highly fluorescent. C1s inhibitors prevent the hydrolysis of the substrate thus resulting in a decrease of the signal.
On the day of the experiment 0.1 mg/mL BSA (Sigma, B4287) is added fresh to the buffer. The test item stock solutions are serially diluted 1:3 or 1:4 or 1:5 with DMSO, 11-point curves, in a 384-well compound plate. Nafamostat concentration curve is always included in the assay plate as a reference control.
The high controls are prepared dispensing in 0.25 μL DMSO in column 23, rows AH or AP and low controls with 0.25 μL of 0.1 M Nafamostat. […] The YLGR-Rh110-dPro substrate is prepared as 2× of the final assay concentration of 20 μM. 1/well of 2× enzyme solution is dispensed and pre-incubated for 15 min with the compounds. The enzymatic reaction is then started with 5 μL/well of the 2× substrate solution.

SMILES	IC50
COc1ccc(B(O)O)cc1-c1ccc2ccnnc2c1 [Example 80, [3-(cinnolin-7-yl)-4-methoxyphenyl]boronic Acid]	617 nM
Nc1cnnc2cc(-c3cc(B(O)O)ccc3OCC3CCCO3)ccc12 (stereo not shown) [Example 82, [3-(4-aminocinnolin-7-yl)-4-(oxolan-2-ylmethoxy)phenyl]boronic Acid]	0.575 nM
COc1cc(C(F)(F)F)c(B(O)O)cc1-c1ccc2c(N)cnnc2c1 [Example 83, [5-(4-aminocinnolin-7-yl)-4-methoxy-2-(trifluoromethyl)phenyl]boronic Acid]	4.57 nM
Cc1nnc(N)c2ccc(-c3cc(B(O)O)cnc3C(F)(F)F)cc12 [Example 84, [5-(1-amino-4-methylphthalazin-6-yl)-6-(trifluoromethyl)pyridin-3-yl]boronic Acid]	11.7 nM
Cc1nnc(N)c2ccc(-c3cc(B(O)O)ccc3NC(=O)c3cnsc3)cc12 [Example 87, [3-(1-amino-4-methylphthalazin-6-yl)-4-(1,2-thiazole-4-amido)phenyl]boronic Acid]	11200 nM
Nc1cnnc2cc(-c3ccc(C(F)(F)F)c(B(O)O)c3)ccc12 [Example 88, [5-(4-aminocinnolin-7-yl)-2-(trifluoromethyl)phenyl]boronic Acid]	5.75 nM
Cc1nnc(N)c2ccc(-c3ccc(NC(=O)C(C)C)c(B(O)O)c3)cc12 [Example 89, [5-(1-amino-4-methylphthalazin-6-yl)-2-(2-methylpropanamido)phenyl]boronic Acid]	5.89 nM
Nc1cnnc2cc(-c3cc(B(O)O)ccc3OCC3(C(F)(F)F)CC3)ccc12 [Example 91, [3-(4-aminocinnolin-7-yl)-4-{[1-(trifluoromethyl)cyclopropyl]methoxy}phenyl]boronic Acid]	1.62 nM
COc1ccc(B(O)O)cc1-c1cc2nncc(N)c2cc1F [Example 92, [3-(4-amino-6-fluorocinnoline-7-yl)-4-methoxyphenyl]boronic Acid]	17.4 nM
Cc1nnc(N)c2ccc(-c3ccc(NC(=O)c4ccccc4Cl)c(B(O)O)c3)cc12 [Example 93, [5-(1-amino-4-methylphthalazin-6-yl)-2-[(2-chlorobenzoyl)amino]phenyl]boronic Acid]	1 nM
Nc1cnnc2cc(-c3c(OC(F)F)ccc(B(O)O)c3F)ccc12 [Example 97, [3-(4-aminocinnolin-7-yl)-4-(difluoromethoxy)-2-fluorophenyl]boronic Acid]	11.7 nM
Nc1cnnc2cc(-c3cc(B(O)O)ccc3OCc3cnsc3)ccc12 [Example 98, [3-(4-aminocinnolin-7-yl)-4-[(1,2-thiazol-4-yl)methoxy]phenyl]boronic Acid]	0.871 nM
Nc1cnnc2cc(-c3cc(F)c4c(c3)B(O)OCC4)ccc12 [Example 99, 7-(4-aminocinnolin-7-yl)-5-fluoro-3,4-dihydro-1H-2,1-benzoxazonin-1-ol]	1.55 nM
Nc1cnnc2cc(-c3cc(B(O)O)cc4ccoc34)ccc12 [Example 100, [7-(4-aminocinnolin-7-yl)-1-benzofuran-5-yl]boronic Acid]	0.776 nM
Cc1nnc(N)c2ccc(-c3cc(B(O)O)cc4ccoc34)cc12 [Example 104, [7-(1-amino-4-methylphthalazin-6-yl)-1-benzofuran-5-yl]boronic Acid]	0.851 nM
Nc1cnnc2cc(-c3cc(B(O)O)ccc3OC(F)(F)C(F)F)ccc12 [Example 105, [3-(4-aminocinnolin-7-yl)-4-(1,1,2,2-tetrafluoroethoxy)phenyl]boronic Acid]	1.12 nM
Nc1cnnc2cc(-c3cc(B(O)O)ccc3OC(F)C(F)(F)F)ccc12 (stereo not shown) [Example 106, [3-(4-aminocinnolin-7-yl)-4-(1,2,2,2-tetrafluoroethoxy)phenyl]boronic Acid]	1.02 nM
COCCOCCOc1ccc(B(O)O)cc1-c1ccc2c(N)cnnc2c1 [Example 107, [3-(4-aminocinnolin-7-yl)-4-[2-(2-methoxyethoxy)ethoxy]phenyl]boronic Acid]	1 nM
Cc1cc(OC(F)F)c(-c2ccc3c(N)cnnc3c2)cc1B(O)O [Example 108, [5-(4-aminocinnolin-7-yl)-4-(difluoromethoxy)-2-methylphenyl]boronic Acid]	1.86 nM

SMILES	IC50
COc1ccc(B(O)O)cc1-c1ccc2c(N)ccnc2c1 [Example 109, [3-(4-aminoquinolin-7-yl)-4-methoxyphenyl]boronic Acid]	871 nM
Nc1cnnc2cc(-c3cc(B(O)O)ccc3OCCC3CCCO3)ccc12 (stereo not shown) [Example 110, [3-(4-aminocinnolin-7-yl)-4-[2-(oxolan-2-yl)ethoxy]phenyl]boronic Acid]	0.661 nM
COc1ccc(B(O)O)cc1-c1ccc2c(N)ncc(C)c2c1 [Example 111, [3-(1-amino-4-methylisoquinolin-6-yl)-4-methoxyphenyl]boronic Acid]	17.4 nM
Nc1cnnc2cc(-c3cc(B(O)O)ccc3OCCC3CCOC3)ccc12 (stereo not shown) [Example 112, [3-(4-aminocinnolin-7-yl)-4-[2-(oxolan-3-yl)ethoxy]phenyl]boronic Acid]	0.776 nM
CC1(C)COC(COc2ccc(B(O)O)cc2-c2ccc3c(N)cnnc3c2)C1 (stereo not shown) [Example 114, [3-(4-aminocinnolin-7-yl)-4-[(4,4-dimethyloxolane-2-yl)methoxy]phenyl]boronic Acid]	1.05 nM
Nc1cnnc2cc(-c3cc(B(O)O)ccc3OCCC3CC3)ccc12 [Example 115, [3-(4-aminocinnolin-7-yl)-4-(2-cyclopropylethoxy)phenyl]boronic Acid]	0.794 nM
COc1cc(C#N)c(B(O)O)cc1-c1ccc2c(N)nnc(C)c2c1 [Example 116, [5-(1-amino-4-methylphthalazin-6-yl)-2-cyano-4-methoxyphenyl]boronic Acid]	2.24 nM
Nc1cnnc2cc(-c3cc(B(O)O)ccc3OC3CCC3)ccc12 [Example 117, [3-(4-aminocinnolin-7-yl)-4-cyclobutoxyphenyl]boronic Acid]	0.708 nM
Nc1cnnc2cc(-c3cc(B(O)O)ccc3OCC(F)(F)F)ccc12 [Example 118, [3-(4-aminocinnolin-7-yl)-4-(2,2,2-trifluoroethoxy)phenyl]boronic Acid Formic Acid Salt]	1.1 nM
Cc1nc2c(-c3ccc4c(N)cnnc4c3)cc(B(O)O)cc2o1 [Example 119, [4-(4-aminocinnolin-7-yl)-2-methyl-1,3-benzoxazol-6-yl]boronic Acid Formic Acid Salt]	0.646 nM
CC(C)NC(=O)c1ccc(B(O)O)cc1-c1ccc2c(N)cnnc2c1 [Example 120, [3-(4-aminocinnolin-7-yl)-4-(propan-2-ylcarbamoyl)phenyl]boronic Acid Formic Acid Salt]	11.2 nM
C[C@@H]1C[C@@H](Oc2ccc(B(O)O)cc2-c2ccc3c(N)cnnc3c2)C[C@H](C)O1 [Example 121, [3-(4-aminocinnolin-7-yl)-4-{[(2R,4S,6S)-2,6-dimethyloxan-4-yl]oxy}phenyl]boronic Acid]	4.9 nM
Cc1nc2cc(B(O)O)cc(-c3ccc4c(N)cnnc4c3)c2o1 [Example 122, [7-(4-aminocinnolin-7-yl)-2-methyl-1,3-benzoxazol-5-yl]boronic Acid Formic Acid Salt]	1.17 nM
C[C@@H]1C[C@H](Oc2ccc(B(O)O)cc2-c2ccc3c(N)cnnc3c2)C[C@H](C)O1 [Example 123, [3-(4-aminocinnolin-7-yl)-4-{[(2R,4R,6S)-2,6-dimethyloxan-4-yl]oxy}phenyl]boronic Acid Formic Acid Salt]	0.851 nM
Nc1cnnc2cc(-c3cc(B(O)O)ccc3C(=O)N3CCCC3)ccc12 [Example 124, [3-(4-aminocinnolin-7-yl)-4-(pyrrolidine-1-carbonyl)phenyl]boronic Acid]	7.59 nM
Cc1nc2c(-c3ccc4c(N)nnc(C)c4c3)cc(B(O)O)cc2o1 [Example 125, [4-(1-amino-4-methylphthalazin-6-yl)-2-methyl-1,3-benzoxazol-6-yl]boronic Acid Formic Acid Salt]	3.24 nM
Nc1cnnc2cc(-c3cc(B(O)O)ccc3OC3CCC(=O)NC3)ccc12 (stereo not shown) [Example 126, [3-(4-aminocinnolin-7-yl)-4-[(6-oxopiperidin-3-yl)oxy]phenyl]boronic Acid]	6.03 nM
Nc1cnnc2cc(-c3ccc(CC(=O)O)c(B(O)O)c3)ccc12 [Example 127, 2-[4-(4-aminocinnolin-7-yl)-2-(dihydroxyboranyl)phenyl]acetic Acid]	13.2 nM
